Values after ≈ are worked out from the molar mass of the structure shown. Like-named read-outs stand apart in the source and are kept apart here. Marks after values point to notes of the source that are not given here.
What was measured:
[1] = system: Leishmania infantum (MHOM/FR/91/LEM2259V); test: Balb/c mice infected with visceral leishmaniasis (Leishmania infantum); type: in vivo; conditions: 10 days, quinolines oral 25 mg/kg/day, Glucantime subcutaneous 100 mg/kg/day; for Number of parasites in the liver per gram / Number of parasites in the spleen per gram: n=8; for % reduction in the number of parasites in the liver / % reduction in the number of parasites in the spleen: versus without treatment
Experimental: b) Tests Carried on Laboratory Animals Infected with Visceral Leishmaniasis (Leishmania infantum): 1/Laboratory Animals and Parasites
The Balb/c mice were infected with Leishmania infantum parasites at the promastigote stage (reference: MHOM/FR/91/LEM2259V), a strain isolated from a patient carrying AIDS. This strain is maintained in Schneider's drosophila culture medium (Gibco, USA) supplemented with 20% of fetal calf serum. The infectious promastigotes are cultured for 7 days and then counted. Each mouse is then infected intravenously with 0.2 ml of culture medium containing 10^7 promastigotes.
Counting of amastigotes forms in the liver and spleen.
After the treatments have been stopped and the animals sacrificed, the viscera, liver and spleen are weighed and collected in a Petri dish. Each organ is mounted several times on a degreased glass slide which, fixed and stained by the May-Grünwald-Giemsa technique, makes it possible to determine the number of amastigote forms per 500 nucleated cells.
The results are expressed in Table VI.

[2] = system: amastigotes of Leishmania amazonensis; test: Amastigotes of Leishmania amazonensis in infected macrophages (leishmanicidal activity); type: cell-based; conditions: for L. amazonensis IC100: 100% inhibitory concentration, intracellular amastigotes in BALB/c macrophages, 30 hours after addition; for activity on Leishmania amazonensis (in words): comment on Table II
Experimental: The strain of Leishmania amazonensis is maintained by successive passages in “nude” mice (nu/nu). The amastigotes are isolated from the lesions developed on the footpads, and purified according to the method described by Antoine et al. (Parasitology, 1989, 99: 1).
The leishmanicidal activity of the quinolines is determined 30 hours after addition of the solutions of substituted quinolines. It is based on a more or less large, or even complete, decrease, firstly, in the size of the parasitophorous vacuoles and, secondly, in the number of live intracellular amastigotes.

[3] = system: macrophages; test: Cytotoxicity on macrophages; type: cell-based, BALB/c mice
Experimental: The macrophages, which will be used as host cells for the leishmania, are obtained after multiplication and differentiation of medullary precursors from BALB/c mice. This culture is prepared in the presence of supernatant from a conditioned line of fibroblasts L-929, and source of “Macrophage Colony Stimulating Factor”. After culturing for 5 days on a hydrophobic support, the adherent macrophages are recovered and then distributed in flat-bottomed 96-well plates for cell culture, in a proportion of 4×10^4 macrophages per well. The macrophages are then infected with purified amastigotes (4 parasites per macrophage) and incubated at 34° C. for 24 hours to allow development of parasitophorous vacuoles and multiplication of parasites. Under these conditions, more than 95% of the macrophages are infected.
The solutions of the substituted quinolines to be tested are prepared in DMSO before being added, at various concentrations, to the infected macrophage cultures.
The results obtained with the substituted quinolines, assigned Nos. 1, 2, 4, 6 to 11, 13 to 20, 23 to 34, 37 and 38 in Table I, are given in Table II below as regards their activity on the amastigotes of Leishmania amazonensis, of Leishmania donovani and of Leishmania infantum, and also their cytotoxicity with respect to the macrophages.

[4] = system: amastigotes of Trypanosoma cruzi (Tulahuen strain); test: Amastigotes of Trypanosoma cruzi in peritoneal macrophages; type: cell-based; conditions: for IC50: read-out: T. cruzi (amastigotes) IC50; for activity on Trypanosoma cruzi (in words): comment on Table III
Experimental: c) Tests on Amastigotes of Trypanosoma cruzi
Peritoneal macrophages from Balb/c mice are collected, washed in Dulbecco PBS and then distributed in 96-well plates in a proportion of 3×10^4 cells per 100 μl and per well, in RPMI-1640 medium supplemented with 10% FCS and antibiotics.
After 24 hours at 37° C., 10^5 trypomastigotes are added with serial 2-fold dilutions of the various substituted quinolines. The cultures are then incubated at 37° C. for 4 days in a humid atmosphere (5% CO2-95% air). After fixing, and then staining with Giemsa, the antiparasitic activity is assessed by counting the extracellular trypomastigotes and the intracellular amastigotes.

[5] = system: circulating forms of Trypanosoma brucei (S427 strain); test: microbe, parasite or virus in culture; type: cell-based; conditions: for IC50: read-out: T. brucei IC50; for activity on Trypanosoma brucei (in words): comment on Table III
Experimental: d) Tests on the Circulating Forms of Trypanosoma brucei
The circulating forms of Trypanosoma brucei are cultured in MEM medium (minimum essential medium; GIBCO-BRL, No. 072-1100) to which Earle's salts have been added and supplemented with 1 mg/ml of glucose, 2.2 mg/ml of NaHCO3, 10 mM of Hepes, 2 mM of sodium pyruvate, 0.2 mM of 2-mercaptoethanol, 0.1 mM of hypoxanthine and 15% of inactivated horse serum.
The cultures are maintained at 37° C. in 24-well plates in a humid atmosphere (5% CO2-95% air) and the passages are carried out every 2 or 3 days at a density of 10^3 to 10^5 trypomastigotes per ml. The activity of the substituted quinolines is tested in triplicate in 96-well plates in which 10^3 parasites originating from an exponential growth phase are distributed per well, in the presence of the various solutions of substituted quinolines in a final volume of 200 μl. After culturing for 48 hours, the trypanocidal activity is assessed by counting, with a Neubauer cell, the number of live parasites per well.

[6] = system: amastigotes of Leishmania donovani (MHOM/ET/67/L82); test: microbe, parasite or virus in culture; type: cell-based; conditions: for IC50: Leishmania donovani, Peritoneal macrophage, in Mus musculus, 48 h, read-out: L. donovani IC50
Description: (§1) b) Tests on Amastigotes of Leishmania donovani and Leishmania infantum
(§2) The Leishmania donovani and Leishmania infantum strains are maintained by successive passages in golden hamsters. The amastigotes are isolated from the spleens of the infected hamsters and brought into contact with the purified macrophages.
(§3) Twenty-four hours after intraperitoneal injection of Balb/c mice with a 2% starch solution, the peritoneal macrophages of these mice are collected, washed in Dulbecco PBS and then distributed in Lab-tek® culture chambers, in a proportion of 4×10^4 cells per 100 μl per well in RPMI-1640 medium supplemented with 10% of FCS and antibiotics. After 24 hours at 37° C. in a humid atmosphere (5% CO2), the macrophages are brought into contact with purified amastigotes (3 parasites per macrophage) in a final volume of 200 μl for 4 hours. The medium is then removed in order to eliminate the extracellular parasites, and replaced with 100 μl of fresh medium.
(§4) Twenty-four hours after the beginning of infection, the solutions of substituted quinolines prepared as described in paragraph a) above are added and the leishmanicidal activity is determined after 48 hours by counting the number of parasites still alive in the fixed and Giemsa-stained cells.

[7] = system: amastigotes of Leishmania infantum (IPZ229/1/89); test: microbe, parasite or virus in culture; type: cell-based; conditions: for IC50: Leishmania infantum, Peritoneal macrophage, in Mus musculus, 48 h, read-out: L. infantum (IPZ229/1/89) IC50
Description: as §1, §2, §3, §4

[8] = system: amastigotes of Leishmania infantum (MHOM/MA(BE)67); test: Amastigotes of Leishmania infantum (MHOM/MA(BE)67) in peritoneal macrophages; type: cell-based; conditions: for IC50: Leishmania infantum, Peritoneal macrophage, in Mus musculus, 48 h, read-out: L. infantum (MHOM/MA (BE) 67) IC50; for activity on the MHOM/MA(BE)67 strain of Leishmania infantum (in words): comment on Table II
[9] = system: Leishmania amazonensis (IFLA/BR/67/PH8); conditions: 15 days, quinolines oral 25 mg/kg/day, Glucantime subcutaneous 100 mg/kg (28 mg Sbv/kg); for Mean of the number of parasites in the lesion per gram / Weight of lesions (mean ± standard deviation): n=8; for % reduction in the number of parasites in the lesion: versus untreated controls
Description: a) Tests Carried Out on Laboratory Animals Infected with Cutaneous Leishmaniasis (Leishmania amazonensis):
The experimental animals are male or female approximately 6- to 8-week-old Balb/c mice weighing 18-24 g, subsequently reared for reproduction in the animal house of the Instituto de Investigaciones en Ciencias de la Salud (IICS), Asuncion, Paraguay. Golden hamsters (Mesocricetus auratus) are used to maintain these strains and as reservoirs for L. amazonensis parasites.
The Balb/c mice are infected with Leishmania amazonensis parasites, at the amastigote stage of the reference strain IFLA/BR/67/PH8, subcutaneously in the ventral pad of the right rear foot, the left foot remaining as a control. The amount of amastigotes inoculated is 2×10^6 amastigotes in 50 μl of phosphate buffer saline (PBS) for L. amazonensis.
The treatments begin once the infection is well established, mainly in general 5 to 6 weeks after inoculation of the L. amazonensis amastigotes. The reference medicinal product chosen is Glucantime® or meglumine antimoniate from Aventis (France).
The untreated control mice are given 50 μl of a solution of Tween 80 with PBS.
Measurement of the lesion: the diameters of the lesions on the infected foot and on the control foot are measured using a micrometer with 1/10 mm graduations, once a week for the duration of the experiment. The first measurements begin 48 hours after inoculation of the parasites. Calculating the difference in the two measurements gives the thickness of the lesion.
The 5 ml of puree obtained are centrifuged twice. The layer containing the amastigotes is subjected to counting of the number of parasites using a Neubauer cell. Five counts are performed on each amastigote layer. The number of amastigote forms is determined using the Stauber formula which takes into account the weight of the lesion: A/N×W×coefficient of the Neubauer cell • A=number of amastigotes, N=number of nuclei W=weight of the lesion
The results are expressed by the calculation of the arithmetic mean of the diameters of the lesions measured once a week and, at the end of the protocol, after sacrifice of the mice, of the weights of the lesions and of the number of amastigotes. A Student's test (t-test) is used for the statistical analysis of all the data. The comparison is made between “control” groups with a “treatment” group per pair. A value of P<0.05 is considered to be statistically significant.

[10] = Balb/c peritoneal macrophages, 4 days
[11] = circulating forms, culturing for 48 hours
[12] = Trypanosoma cruzi, TULAHUEN, Peritoneal macrophage, in Mus musculus, 96 h

Row | Molecule | L. amazonensis IC100 [2] [µg/mL] | Cytotoxicity on macrophages ([3]; macrophages from BALB/c mice) [µg/mL] | IC50 [4, 10] [µM] | IC50 [5, 11] [µM] | also measured
1 | C#Cc1ccc2ccccc2n1 [Quinoline 1, 1-(2-quinolyl)acetylene] |  |  |  |  | Number of parasites in the liver per gram [1]: 1.8 × 10^7 c per gram; Number of parasites in the spleen per gram [1]: 2.2 × 10^6 b per gram; % reduction in the number of parasites in the liver [1]: −60.0%; % reduction in the number of parasites in the spleen [1]: −47.6%
2 | OC/C=C/c1ccc2ccccc2n1 [Example 4, E-3-(2-quinolyl)prop-2-en-1-ol] | 25 | 25 |  |  | 
3 | BrC#Cc1ccc2ccccc2n1 [Quinoline 28] | 12.5 | 12.5 | > 32 | 5 | 
4 | C=Cc1ccc2ccccc2n1 [Quinoline 2, (2-quinolyl)ethylene] | 3.12 | 6.25 |  |  | IC50 [6]: 1.2 to 2.8 µg/mL (≈ 7.73 to 18 µM); IC50 [7]: 1.3 µg/mL (≈ 8.38 µM); IC50 [8]: > 32 µM; IC50 [4, 12]: 12 µM; IC50 ([5]; Trypanosoma brucei, 48 h): 13 µM
5 | CC(O)Cc1ccc2ccccc2n1 (stereo not drawn) [Quinoline 15] |  |  | > 32 | 16 | 
6 | BrC(Br)=Cc1ccc2ccccc2n1 [Quinoline 36] |  |  | 21 | 4 | 
7 | COC(=O)/C=C/C=C/c1ccc2ccccc2n1 [Quinoline 30] | 12.5 | 25 | 26 |  | 
8 | CC/C=C/c1ccc2ccccc2n1 [Quinoline 6, E-1-(2-quinolyl)butene] | 6.25 | 25 | > 32 | 17 | Mean of the number of parasites in the lesion per gram [9]: 6.9 × 10^6 per gram; Weight of lesions (mean ± standard deviation) [9]: 0.101 ± 0.100 g; % reduction in the number of parasites in the lesion [9]: −73%
9 | C/C=C/c1ccc2cccc(O)c2n1 [Quinoline 11] | 50 | 50 | 19 | > 32 | 
10 | CC(O)Cc1ccc2cccc(O)c2n1 (stereo not drawn) [Quinoline 22] |  |  | 16 | 16 | 
11 | C[Si](C)(C)C#Cc1ccc2ccccc2n1 [Example 1, 2-(2-quinolyl)trimethylsilylacetylene] | 0.7812 | 6.25 |  |  | 
12 | C(=C\c1ccc2ccccc2n1)/c1ccc2ccccc2n1 [Quinoline 35] |  |  | > 32 | 24 | 
13 | Cc1ccc2nc(C=O)ccc2c1 [Quinoline 5] |  |  | > 32 |  | 
14 | COC(=O)/C=C/c1ccc2cc(C)ccc2n1 [Quinoline 27] | 50 |  | 25 |  | 
15 | c1ccc2nc(CCc3ccc4c(c3)OCO4)ccc2c1 [Quinoline 34] | 50 | 25 | 15 | 13 | 
16 | CCCCC/C=C/c1ccc2ccccc2n1 [Quinoline 25] | 12.5 | 25 | 11 | 4 | activity on Leishmania amazonensis (in words) [2]: advantageous activity; activity on the MHOM/MA(BE)67 strain of Leishmania infantum (in words) [8]: less active; activity on Trypanosoma cruzi (in words) [4]: advantageous activity; activity on Trypanosoma brucei (in words) [5]: advantageous activity
17 | O=C(O)/C=C/c1ccc2ccccc2n1 [Quinoline 19] | 12.5 | 12.5 |  |  | 
18 | meglumine antimoniate [Glucantime, reference compound] |  |  |  |  | Number of parasites in the liver per gram [1]: 1.6 × 10^7 a per gram; Number of parasites in the spleen per gram [1]: 4.4 × 10^6 per gram; % reduction in the number of parasites in the liver [1]: −65.3%; % reduction in the number of parasites in the spleen [1]: +6.0%; Mean of the number of parasites in the lesion per gram [9]: 7.2 × 10^5 per gram; Weight of lesions (mean ± standard deviation) [9]: 0.012 ± 0.010 g; % reduction in the number of parasites in the lesion [9]: −97%
19 | FC(Br)=Cc1ccc2ccccc2n1 [Quinoline 31] | 25 | 25 |  |  | 
20 | Br/C=C/c1ccc2ccccc2n1 [Quinoline 29, E-1-bromo-2-(2-quinolyl)-ethene] | 0.7812 | 3.12 |  |  | IC50 [8]: 2 µM; IC50 [4, 12]: < 0.5 µM; IC50 ([5]; Trypanosoma brucei, 48 h): 1 µM
21 | COC(=O)/C=C/c1ccc2ccccc2n1 [Quinoline 23, methyl E-3-(2-quinolyl)-2-propenoate] | 12.5 |  |  |  | activity on Leishmania amazonensis (in words) [2]: marked activity; Cytotoxicity on macrophages ([3]; BALB/c, mouse): 50 µg/mL; IC50 [6]: 3.3 to 30 µg/mL (≈ 15.5 to 141 µM); activity on Leishmania donovani (in words) ([6]; comment on Table II): marked activity; IC50 [7]: 0.4 to 2.2 µg/mL (≈ 1.88 to 10.3 µM); activity on the IPZ229/1/89 strain of Leishmania infantum (in words) ([7]; comment on Table II): marked activity; IC50 [8]: 26 µM; activity on the MHOM/MA(BE)67 strain of Leishmania infantum (in words) [8]: less advantageous; IC50 [4, 12]: 15 µM; activity on Trypanosoma cruzi (in words) [4]: less advantageous; IC50 ([5]; Trypanosoma brucei, 48 h): 16 µM; activity on Trypanosoma brucei (in words) [5]: less advantageous; Number of parasites in the liver per gram [1]: 1.8 × 10^7 d per gram; Number of parasites in the spleen per gram [1]: 1.5 × 10^6 c, f per gram; % reduction in the number of parasites in the liver [1]: −60.0%; % reduction in the number of parasites in the spleen [1]: −64.3%; Mean of the number of parasites in the lesion per gram [9]: 3.1 × 10^6 per gram; Weight of lesions (mean ± standard deviation) [9]: 0.059 ± 0.010 g; % reduction in the number of parasites in the lesion [9]: −88%**
22 | CCC(O)c1ccc2ccccc2n1 (stereo not drawn) [Quinoline 17] |  |  | > 32 | 3 | 
23 | Cl/C=C/C#Cc1ccc2ccccc2n1 [Quinoline 24] | 10 to 25 |  |  |  | 
24 | CC(=O)Cc1ccc2ccccc2n1 [Quinoline 13] | 25 | 25 | > 32 | 10 | 
25 | CCCCCCCCC#Cc1ccc2ccccc2n1 [Quinoline 32] | 12.5 | 12.5 |  |  | 
26 | OC/C=C/c1ccc2ccccc2n1 [Quinoline 10] |  |  | 4 | > 32 | L. amazonensis IC100 ([2]; listed as 10): 1.56 µg/mL; Cytotoxicity on macrophages ([3]; macrophages from BALB/c mice, listed as 10): 6.25 µg/mL
